These results are taken from PubChem BioAssay AID314 (DTP/NCI, 2004).

The structures appear in SMILES notation. Several values for one entry are separate records, joined by “and”; a condition that tells them apart may be missing. Identical values can stand only once. Toxic doses and inconclusive results are not listed.

For this test, the system named is DBA/2 mice, P1534 leukemia ip, survival T/C. Nature of the test: NCI In Vivo Anticancer Drug Screen. Data for tumor model P1534 Leukemia (intraperitoneal) in DBA/2 mice. Conditions: endpoint: mean survival time, higher = longer survival. On the procedure:
The antitumor activity of compounds was measured in mice bearing transplantable tumors. Survival or tumor size were measured and the results are expressed as the measurement made in the treated group (T) divided by the measurement made in the vehicle treated control group (C). The tumor model used in this assay is P1534 Leukemia (intraperitoneal) in DBA/2 mice

[1] abbreviates: dose: 5.0 mg/kg/injection, schedule: Q01DX010 (ip), vehicle: saline.
Setting [2] is: dose: 10.0 mg/kg/injection, schedule: Q01DX010 (ip), vehicle: saline.
Setting [3] is: dose: 100.0 mg/kg/injection, schedule: Q01DX010 (ip), vehicle: saline.
The mark [4] stands for this setting: dose: 62.5 mg/kg/injection, schedule: Q01DX010 (ip), vehicle: saline.
Setting [5] is: dose: 125.0 mg/kg/injection, schedule: Q01DX010 (ip), vehicle: saline.
Where [6] appears, read: dose: 250.0 mg/kg/injection, schedule: Q01DX010 (ip), vehicle: saline.
Setting [7] is: dose: 16.0 mg/kg/injection, schedule: Q01DX010 (ip), vehicle: saline.
Where [8] appears, read: dose: 64.0 mg/kg/injection, schedule: Q01DX010 (ip), vehicle: saline.
Where [9] appears, read: dose: 40.0 mg/kg/injection, schedule: Q01DX010 (ip), vehicle: saline.
The mark [10] stands for this setting: dose: 20.0 mg/kg/injection, schedule: Q01DX010 (ip), vehicle: saline.
The mark [11] stands for this setting: dose: 500.0 mg/kg/injection, schedule: Q01DX010 (ip), vehicle: saline.
Where [12] appears, read: dose: 1.25 mg/kg/injection, schedule: Q01DX010 (ip), vehicle: saline.
Where [13] appears, read: dose: 2.5 mg/kg/injection, schedule: Q01DX010 (ip), vehicle: saline.
Setting [14] is: dose: 3.13 mg/kg/injection, schedule: Q01DX010 (ip), vehicle: saline.
The mark [15] stands for this setting: dose: 0.25 mg/kg/injection, schedule: Q01DX010 (ip), vehicle: saline.
Where [16] appears, read: dose: 0.5 mg/kg/injection, schedule: Q01DX010 (ip), vehicle: saline.
[17] abbreviates: dose: 1.0 mg/kg/injection, schedule: Q01DX010 (ip), vehicle: saline.
[18] abbreviates: dose: 31.3 mg/kg/injection, schedule: Q01DX010 (ip), vehicle: saline.

As for `C[C@]12C[C@H](O)[C@H]3[C@@H](CCC4=CC(=O)CC[C@@]43C)[C@@H]1CC[C@@H]2C(=O)CO`, the T/C is, setting by setting: (dose: 12.5 mg/kg/injection, schedule: Q01DX010 (sc), vehicle: steriod suspending solution) 100 % of control; (dose: 25.0 mg/kg/injection, schedule: Q01DX010 (sc), vehicle: steriod suspending solution) 100 % of control; (dose: 50.0 mg/kg/injection, schedule: Q01DX010 (sc), vehicle: steriod suspending solution) 100 % of control; (dose: 100.0 mg/kg/injection, schedule: Q01DX010 (sc), vehicle: steriod suspending solution) 100 % of control.
For `CC[n+]1c(-c2ccccc2)c2cc(N)ccc2c2ccc(N)cc21`, the T/C is 113 % of control under setting [1] and 120 % of control under setting [2].
As for `COC12C(COC(N)=O)C3=C(C(=O)C(C)=C(N)C3=O)N1CC1C2N1C` (configuration not stated), the T/C by setting is: (dose: 2.5 mg/kg/injection, schedule: Q01DX010 (sc), vehicle: saline) 108 % of control; (dose: 5.0 mg/kg/injection, schedule: Q01DX010 (sc), vehicle: saline) 108 % of control; (dose: 10.0 mg/kg/injection, schedule: Q01DX010 (sc), vehicle: saline) 100 % of control.
In the case of `N=C(N)N`, the T/C under setting [3] was 100 % of control; the T/C (dose: 150.0 mg/kg/injection, schedule: Q01DX010 (ip), vehicle: saline) is 100 % of control; the T/C (dose: 215.0 mg/kg/injection, schedule: Q01DX010 (ip), vehicle: saline) was 100 % of control.
In the case of `O=c1[nH]c(=O)n(C2CC(O)C(CO)O2)cc1Br` (configuration not stated), the T/C is 121 % of control under setting [4], 107 % of control under setting [5] and 96 % of control under setting [6].
In the case of `O=C(Nc1ccc(C2=NCCN2)cc1)c1cccc(C(=O)Nc2ccc(C3=NCCN3)cc2)c1`, the T/C by setting is: (dose: 8.0 mg/kg/injection, schedule: Q01DX010 (ip), vehicle: saline) 163 % of control; under setting [7], 177 % of control; (dose: 32.0 mg/kg/injection, schedule: Q01DX010 (ip), vehicle: saline) 240 % of control; under setting [8], 290 % of control.
For `CN(N=O)C(=O)NC(C=O)C(O)C(O)C(O)CO` (configuration not stated), the T/C reads like this: under setting [9], 122 % of control; (dose: 90.0 mg/kg/injection, schedule: Q01DX010 (ip), vehicle: saline) 100 % of control; (dose: 135.0 mg/kg/injection, schedule: Q01DX010 (ip), vehicle: saline) 86 % of control.
Take `CN(Cc1cnc2nc(N)nc(N)c2n1)c1c(Cl)cc(C(=O)NC(CCC(=O)O)C(=O)O)cc1Cl` (configuration not stated): under setting [10], the T/C was 120 % of control.
As to `CC(C)(C)CC(C)(C)c1ccc(O)cc1`, the T/C was 100 % of control under setting [4], 100 % of control under setting [5], 107 % of control under setting [6] and 111 % of control under setting [11].
Regarding `O=C(O)c1[nH]c(=O)[nH]c(=O)c1F`, the T/C under setting [12] is 86 % of control.
On to `NC(Cc1ccc(N(CCCl)CCCl)cc1)C(=O)O` (configuration not stated), for which the T/C runs as follows: (dose: 0.5 mg/kg/injection, schedule: Q01DX010 (ip), vehicle: alkali diluted with saline) 102 % of control and 111 % of control; (dose: 1.0 mg/kg/injection, schedule: Q01DX010 (ip), vehicle: alkali diluted with saline) 104 % of control; under setting [12], 100 % of control and 119 % of control; (dose: 2.0 mg/kg/injection, schedule: Q01DX010 (ip), vehicle: alkali diluted with saline) 99 % of control; under setting [13], 100 % of control; (dose: 4.0 mg/kg/injection, schedule: Q01DX010 (ip), vehicle: alkali diluted with saline) 101 % of control. The T/C under setting [1] was 100 % of control.
With `Oc1cc(CN(CCCl)CCCl)c(O)cc1CN(CCCl)CCCl`, the T/C under setting [13] is 117 % of control.
With `CS(=O)(=O)OCCC(=O)N1CCN(C(=O)CCOS(C)(=O)=O)CC1`, the T/C reads like this: under setting [14], 107 % of control; (dose: 6.25 mg/kg/injection, schedule: Q01DX010 (ip), vehicle: saline) 103 % of control; (dose: 12.5 mg/kg/injection, schedule: Q01DX010 (ip), vehicle: saline) 119 % of control; (dose: 25.0 mg/kg/injection, schedule: Q01DX010 (ip), vehicle: saline) 120 % of control.
Turning to `CCC(=O)NC1=C(N2CC2)C(=O)C(NC(=O)CC)=C(N2CC2)C1=O`, the T/C runs as follows: (dose: 0.13 mg/kg/injection, schedule: Q01DX010 (ip), vehicle: saline) 108 % of control; under setting [15], 108 % of control; under setting [16], 100 % of control; under setting [17], 112 % of control.
For the molecule `CC(=O)Nc1ccc2nc3ccc(NC(C)=O)cc3[n+](-c3ccccc3)c2c1`, the T/C is 100 % of control under setting [18], 103 % of control under setting [4] and 88 % of control under setting [6].
Regarding `O=CN(O)CC(=O)O`, the T/C is, setting by setting: (dose: 15.6 mg/kg/injection, schedule: Q01DX010 (ip), vehicle: saline) 93 % of control; under setting [18], 93 % of control; under setting [4], 96 % of control; under setting [5], 93 % of control.
Regarding `CCCCCC(=O)O[C@]1(C(C)=O)CC[C@H]2[C@@H]3CCC4=CC(=O)CC[C@]4(C)[C@H]3CC[C@@]21C`, the T/C was 103 % of control (dose: 250.0 mg/kg/injection, schedule: Q01DX010 (sc), vehicle: steriod suspending solution); 100 % of control (dose: 375.0 mg/kg/injection, schedule: Q01DX010 (sc), vehicle: steriod suspending solution); 100 % of control (dose: 500.0 mg/kg/injection, schedule: Q01DX010 (sc), vehicle: steriod suspending solution); 107 % of control (dose: 750.0 mg/kg/injection, schedule: Q01DX010 (sc), vehicle: steriod suspending solution).
Consider `c1ccc(CCSc2ncnc3nc[nH]c23)cc1`, for which the T/C is 100 % of control under setting [5], 100 % of control under setting [6] and 104 % of control under setting [11].
On to `NC(=O)c1ccc(N)nc1`, for which, under “dose: 3.0 mg/kg/injection, schedule: Q01DX010 (ip), vehicle: saline”, the T/C is 90 % of control.
On to `Cn1c(N)nc2nc[nH]c2c1=S`, for which the T/C is 100 % of control under setting [1], 100 % of control under setting [2], 100 % of control under setting [10] and 100 % of control under setting [9].
As for `Cn1cnc([N+](=O)[O-])c1Sc1nc(N)nc2nc[nH]c12`, the T/C is 100 % of control and 108 % of control under setting [12]; 100 % of control and 108 % of control under setting [13]; 88 % of control under setting [1]; 88 % of control under setting [2].
As for `C=C(C(=O)OC1CC2CCC(C1)N2C)c1ccccc1` (configuration not stated), under setting [1], the T/C is 100 % of control.
`Cn1c(O)c(N=NC(N)=S)c2ccccc21`: the T/C is 100 % of control under setting [18], 100 % of control under setting [4] and 103 % of control under setting [5].
Consider `N#CCSc1ncnc2nc[nH]c12`, for which the T/C runs as follows: (dose: 15.0 mg/kg/injection, schedule: Q01DX010 (ip), vehicle: saline) 89 % of control; (dose: 30.0 mg/kg/injection, schedule: Q01DX010 (ip), vehicle: saline) 100 % of control; (dose: 60.0 mg/kg/injection, schedule: Q01DX010 (ip), vehicle: saline) 96 % of control and 100 % of control.
As to `CN(C)c1ccc(/C=C/c2ccnc3ccccc23)cc1`, the T/C under setting [1] was 100 % of control and 108 % of control; the T/C under setting [2] is 100 % of control; the T/C under setting [10] is 100 % of control and 108 % of control; the T/C under setting [9] is 100 % of control.
In the case of `NCCCCCCNC(=O)CCC(=O)NCCCCCCN`, the T/C under setting [7] was 95 % of control and the T/C under setting [8] is 91 % of control.
Take `OC(CBr)C(O)C(O)C(O)CBr` (configuration not stated): the T/C under setting [3] is 100 % of control.
As to `COC(=O)c1[nH]c(=O)[nH]c(=O)c1F`, the T/C under setting [17] was 103 % of control and the T/C (dose: 4.0 mg/kg/injection, schedule: Q01DX010 (ip), vehicle: saline) was 93 % of control.
In the case of `COc1ccc2[nH]c3c(C)c4ccncc4c(C)c3c2c1`, the T/C is, setting by setting: under setting [13], 100 % of control; under setting [1], 93 % of control; under setting [2], 103 % of control; under setting [10], 117 % of control.
As for `C[C@@H](N)[C@@H](O)c1ccccc1`, under setting [14], the T/C is 96 % of control.
Take `CO[C@@]12[C@H](COC(N)=O)C3=C(C(=O)C(C)=C(N)C3=O)N1C[C@@H]1N[C@@H]12`: the T/C was 92 % of control under setting [15]; 111 % of control under setting [16]; 103 % of control under setting [17]; 92 % of control (dose: 2.0 mg/kg/injection, schedule: Q01DX010 (ip), vehicle: saline).
